Like-named read-outs stand apart in the source and are kept apart here.
Columns and labels:
Aedes aegypti = test: Burning coil trial in ventilated 20 cubic metre test chamber with human subject: landing/bite inhibition, knockdown, 24 hour mortality; type: in vivo; conditions: for % KD (15 mins) / 24 hour % mortality (15 mins exposure): 15 minutes exposure; for 24 hour % mortality (15 mins exposure): dead after 24 hours; for % bite inhibition / % landing inhibition: assessed 10 to 15 minutes exposure
Experimental: A combustible coil according to the present invention containing bifenthrin was compared with coils containing other pyrethroid active ingredients (d-allethrin, d-phenothrin, imiprothrin, permethrin, cypermethrin, bioresmethrin, deltamethrin) as indicated in Table 2. All coils contained active ingredients in an amount that rendered them similar in cost to the current leading d-allethrin coils. The range of actives covered both knockdown and residual pyrethroids. The trial was carried out against the Dengue mosquito (Aedes aegypti). The methodology employed is as follows:
The study was conducted in a ventilated test chamber (20 cubic metres) at a temperature of between 27° C. and 28.7° C. The relative humidity was ambient and ranged from 51% to 58%.
Mixed sex adult 6 to 10 day old Dengue mosquitoes (Aedes aegypti) were used in this study. There were 50 female mosquitoes released per replicate and a variable number of male mosquitoes. The mosquitoes were collected and immobilised. Male and female mosquitoes were added to a container until 50 female mosquitoes were obtained. Because only female mosquitoes bite human subjects, the number of males present in each trial was irrelevant. The mosquitoes were allowed to recover for at least one hour before being used for testing.
A positive air flow of 0.4 metres/second was generated into the chamber and air was passively vented from the chamber.
Coil treatments were placed on the floor in the test chamber, and were allowed to burn for 5 minutes before all mosquitoes were brought into the chamber and released. The coils continued to operate during the assessments and were stopped at the completion of the test period.
Starting from 10 minutes after the mosquitoes were released, an assessment was made by one human subject of the mosquito landings and bites over a 5 minute period. Whilst seated in the chamber, the subject recorded the total number of females that initiated a bite on the subject's legs, as well as the number of females that landed without initiating biting. Mosquitoes were permitted to probe the subject but not permitted to bite the subject, and were chased away prior to this occurring.
Immediately after the 5 minute assessment period, the number of knocked down mosquitoes was recorded. All the mosquitoes were collected and removed from the chamber. After 24 hours, the number of dead mosquitoes was recorded. The same human subject was used for all assessments.
The results shown in the Table 2 are the means of four trials.
Percentage landing inhibition refers to the number of mosquitoes which landed on the subject in the absence of any treatment (untreated control), minus the number of mosquitoes which landed on the subject in the presence of a coil treatment, divided by the number of mosquitoes which landed on the subject in the absence of any treatment, expressed as a percentage. Landing inhibition was assessed from 10 to 15 minutes exposure of the Aedes aegypti mosquitoes to each burning coil treatment.
Percentage bite inhibition refers to the number of mosquitoes which probed or attempted to bite the subject in the absence of any treatment (untreated control), minus the number of mosquitoes which attempted to bite the subject in the presence of a coil treatment, divided by the number of mosquitoes which attempted to bite the subject in the absence of any treatment, expressed as a percentage. It will be appreciated that, as mosquitoes must first land before attempting to bite, of necessity, percentage bite inhibition will always be lower than or equal to percentage landing inhibition. Bite inhibition was assessed from 10 to 15 minutes exposure of the Aedes aegypti mosquitoes to each burning coil treatment.
Knockdown refers to mosquitoes present on the floor of the chamber after the 15 minute trial, which were either dead, moribund, or incapacitated (i.e. unable to fly off the floor of the chamber). […]

[1] = cited from earlier work
Culex quinquefasciatus = test: Burning coil trial with mosquitoes confined in a small cage in the chamber, subject's arm inserted: landing/bite inhibition, knockdown, 24 hour mortality; type: in vivo; conditions: caged Culex quinquefasciatus; for % KD (15 mins) / % bite inhibition / % landing inhibition: 15 minutes exposure
Experimental: The trial detailed in Example 2 was repeated against the much more difficult to kill Culex quinquefasciatus mosquitoes. The methodology used was similar to that employed for Aedes aegypti described above, with the following variations.
One hundred female and a variable number of male Cx. quinquefasciatus were confined in a small cage which was placed in the chamber 5 minutes after the coil treatment had been ignited. For this species of mosquito, the subject's arm was inserted into the cage for determinations of landing and biting rates. The reasons for these changes in methodology compared to those used for Ae. aegypti was because Cx. quinquefasciatus are much weaker biters. This meant that satisfactory biting rates could only be achieved by confining them to a small volume.
Percentage landing inhibition, percentage bite inhibition, percentage knockdown and percentage mortality are as defined above. […] As Cx. quinquefasciatus is a more robust mosquito species the lower level of mortality after 15 minutes exposure when compared with the Ae. aegypti mosquitoes was expected.

[2] = Comparison of physical properties of pyrethroids (The Pesticide Manual); type: physicochemical; conditions: ratio of the cited vapour pressures
From the text: The present inventors compared some physical properties of bifenthrin with those of other residual pyrethroids.

[3] = burning coil with 0.035% imiprothrin
[4] = burning coil with 0.02% bifenthrin
[5] = burning coil with 0.05% bifenthrin
[6] = burning coil with 0.10% bifenthrin
[7] = burning coil with 0.25% d-allethrin
[8] = burning coil with 0.3% cypermethrin
[9] = burning coil with 0.07% deltamethrin
[10] = burning coil with 0.056% bioresmethrin
[11] = burning coil with 0.228% d-phenothrin
[12] = burning coil with 0.705% permethrin

C#CCN1CC(=O)N(COC(=O)[C@@H]2C(C=C(C)C)C2(C)C)C1=O (mixture of isomers) [Imiprothrin, imiprothrin]
% KD (15 mins) (Aedes aegypti; [3]): 1%
24 hour % mortality (15 mins exposure) (Aedes aegypti; [3]): 7%
% bite inhibition (Aedes aegypti; [3]): 34%
% landing inhibition (Aedes aegypti; [3]): 34%
Vapour Pressure ([1]; 25° C.): 0.0018 mPa

Cc1c(COC(=O)[C@H]2[C@@H](/C=C(\Cl)C(F)(F)F)C2(C)C)cccc1-c1ccccc1 (racemic) [Bifenthrin, 2-methylbiphenyl-3-ylmethyl (Z)-(1RS,3RS)-3-(2-chloro-3,3,3-trifluoroprop-1-enyl)-2,2-dimethylcyclopropanecarboxylate]
% KD (15 mins) (Aedes aegypti; [4]): 15%
24 hour % mortality (15 mins exposure) (Aedes aegypti; [4]): 78%
% bite inhibition (Aedes aegypti; [4]): 95%
% landing inhibition (Aedes aegypti; [4]): 80%
% KD (15 mins) (Aedes aegypti; [5]): 31%
24 hour % mortality (15 mins exposure) (Aedes aegypti; [5]): 94%
% bite inhibition (Aedes aegypti; [5]): 99%
% landing inhibition (Aedes aegypti; [5]): 87%
% KD (15 mins) (Aedes aegypti; [6]): 30%
24 hour % mortality (15 mins exposure) (Aedes aegypti; [6]): 96%
% bite inhibition (Aedes aegypti; [6]): 100%
% landing inhibition (Aedes aegypti; [6]): 92%
Vapour Pressure ([1]; 25° C.): 0.024 mPa
24 hour % mortality (15 mins exposure) (Culex quinquefasciatus; [4]): 9%
% KD (15 mins) (Culex quinquefasciatus; [4]): 1%
% bite inhibition (Culex quinquefasciatus; [4]): 96%
% landing inhibition (Culex quinquefasciatus; [4]): 86%
24 hour % mortality (15 mins exposure) (Culex quinquefasciatus; [5]): 27%
% KD (15 mins) (Culex quinquefasciatus; [5]): 3%
% bite inhibition (Culex quinquefasciatus; [5]): 95%
% landing inhibition (Culex quinquefasciatus; [5]): 85%
24 hour % mortality (15 mins exposure) (Culex quinquefasciatus; [6]): 39%
% KD (15 mins) (Culex quinquefasciatus; [6]): 4%
% bite inhibition (Culex quinquefasciatus; [6]): 99%
% landing inhibition (Culex quinquefasciatus; [6]): 86%

C=CCC1=C(C)C(OC(=O)C2C(C=C(C)C)C2(C)C)CC1=O (stereo not drawn) [d-Allethrin, d-allethrin]
% KD (15 mins) (Aedes aegypti; [7]): 35%
24 hour % mortality (15 mins exposure) (Aedes aegypti; [7]): 7%
24 hour % mortality (15 mins exposure) (Aedes aegypti; burning coil with 0.25% d-allethrin, listed as d-allethrin): no different from the untreated control
% bite inhibition (Aedes aegypti; [7]): 100%
% landing inhibition (Aedes aegypti; [7]): 98%
Vapour Pressure ([1]; 21° C.): 0.16 mPa
24 hour % mortality (15 mins exposure) (Culex quinquefasciatus; [7]): 2%
% KD (15 mins) (Culex quinquefasciatus; [7]): 7%
% bite inhibition (Culex quinquefasciatus; [7]): 94%
% landing inhibition (Culex quinquefasciatus; [7]): 87%

CC1(C)C(C=C(Cl)Cl)C1C(=O)OC(C#N)c1cccc(Oc2ccccc2)c1 (stereo not drawn) [Cypermethrin, cypermethrin]
% KD (15 mins) (Aedes aegypti; [8]): 10%
24 hour % mortality (15 mins exposure) (Aedes aegypti; [8]): 56%
% bite inhibition (Aedes aegypti; [8]): 73%
% landing inhibition (Aedes aegypti; [8]): 70%
Vapour Pressure ([1]; 20° C.): 0.0002 mPa

CC1(C)[C@H](C(=O)O[C@H](C#N)c2cccc(Oc3ccccc3)c2)[C@@H]1C=C(Br)Br [Deltamethrin, deltamethrin]
% KD (15 mins) (Aedes aegypti; [9]): 0%
24 hour % mortality (15 mins exposure) (Aedes aegypti; [9]): 12%
% bite inhibition (Aedes aegypti; [9]): 57%
% landing inhibition (Aedes aegypti; [9]): 57%
Vapour Pressure ([1]; 25° C.): 0.0000124 mPa

CC(C)=C[C@@H]1[C@@H](C(=O)OCc2coc(Cc3ccccc3)c2)C1(C)C [Bioresmethrin, bioresmethrin]
% KD (15 mins) (Aedes aegypti; [10]): 41%
24 hour % mortality (15 mins exposure) (Aedes aegypti; [10]): 23%
% bite inhibition (Aedes aegypti; [10]): 99%
% landing inhibition (Aedes aegypti; [10]): 96%
Vapour Pressure ([1]; 25° C.): 18.6 mPa
vapour pressure relative to bifenthrin [2]: 775 times

CC(C)=CC1C(C(=O)OCc2cccc(Oc3ccccc3)c2)C1(C)C (stereo not drawn) [d-Phenothrin, d-phenothrin]
% KD (15 mins) (Aedes aegypti; [11]): 39%
24 hour % mortality (15 mins exposure) (Aedes aegypti; [11]): 24%
% bite inhibition (Aedes aegypti; [11]): 100%
% landing inhibition (Aedes aegypti; [11]): 98%
Vapour Pressure ([1]; 21.4° C.): 0.019 mPa

CC1(C)C(C=C(Cl)Cl)C1C(=O)OCc1cccc(Oc2ccccc2)c1 (stereo not drawn) [Permethrin, permethrin]
% KD (15 mins) (Aedes aegypti; [12]): 35%
24 hour % mortality (15 mins exposure) (Aedes aegypti; [12]): 55%
% bite inhibition (Aedes aegypti; [12]): 85%
% landing inhibition (Aedes aegypti; [12]): 8%
Vapour Pressure ([1]; 20° C.): 0.0025 mPa

Source: patent publication US20070275025A1, “Combustible Mosquito Coil or Stick” (RECKITT BENCKISER (AUSTRALIA) PTY LIMITED, priority 2003, published 2007)
